The source of these data is patent publication US7879887B2, “α-amino acid derivatives and medicaments containing the same as an active ingredient” (Nissan Chemical Industries, Ltd., priority 2006, dated 2011).

The target of one assay is T1, recombinant human βARK1 (Homo sapiens, UniProt P25098).
T1 construct: made in house; host or cells: Sf-9 insect cells (baculovirus, pBacPAK8)
T1 sequence (P25098 1-689): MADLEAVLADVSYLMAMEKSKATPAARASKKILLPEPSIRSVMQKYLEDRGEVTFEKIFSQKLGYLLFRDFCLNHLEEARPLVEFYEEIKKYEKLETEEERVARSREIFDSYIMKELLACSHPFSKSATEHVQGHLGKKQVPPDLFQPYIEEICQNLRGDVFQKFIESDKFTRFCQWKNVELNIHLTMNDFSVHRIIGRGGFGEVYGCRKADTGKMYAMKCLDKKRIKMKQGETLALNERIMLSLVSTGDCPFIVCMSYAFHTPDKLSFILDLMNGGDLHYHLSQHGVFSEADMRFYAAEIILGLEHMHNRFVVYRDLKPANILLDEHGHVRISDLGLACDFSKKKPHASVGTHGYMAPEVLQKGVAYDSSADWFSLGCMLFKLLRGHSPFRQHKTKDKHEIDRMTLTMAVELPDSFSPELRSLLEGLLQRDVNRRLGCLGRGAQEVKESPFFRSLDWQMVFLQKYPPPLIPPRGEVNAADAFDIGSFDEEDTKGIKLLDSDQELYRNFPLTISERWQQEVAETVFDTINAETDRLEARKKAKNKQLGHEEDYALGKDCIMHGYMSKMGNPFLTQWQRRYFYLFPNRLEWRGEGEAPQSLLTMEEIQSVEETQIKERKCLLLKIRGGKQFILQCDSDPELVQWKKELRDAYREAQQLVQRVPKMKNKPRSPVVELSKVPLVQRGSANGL
In words: Inhibitory activity against βARK1 (33P phosphorylation of synthetic peptide). In kind it is biochemical. The conditions noted are these: recombinant human βARK1, 60 minutes at room temperature. The method in brief:
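Recombinant human βARK1 from baculovirus-infected Sf-9 cells, purified by SP-Sepharose and heparin chromatography. Biotinylated synthetic peptide phosphorylated with [γ-33P]ATP; substrate solution held 1 mmol/L peptide and 80 μmol/L ATP, enzyme solution 19 to 38 nmol/L βARK1, both in Tris-HCl pH 7.5, 7.5 mmol/L MgCl2; final DMSO 4 vol %.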

The next assay concerns the target T2, CDK3/Cyclin E complex (Homo sapiens, UniProt Q00526).
T2 construct: purchased Upstate Inc. 14-487
In words: In vitro kinase assay, CDK3/Cyclin E complex. In kind it is biochemical. The conditions noted are these: recombinant protein (Upstate); read-out: CDK3/cyclinE IC50. As to the method: Inhibitory activity against Aurora A, CDK1/Cyclin B complex, CDK2/Cyclin E complex and CDK3/Cyclin E complex were measured by in vitro kinase assay using recombinant proteins.

T2 sequence (Q00526 whole entry): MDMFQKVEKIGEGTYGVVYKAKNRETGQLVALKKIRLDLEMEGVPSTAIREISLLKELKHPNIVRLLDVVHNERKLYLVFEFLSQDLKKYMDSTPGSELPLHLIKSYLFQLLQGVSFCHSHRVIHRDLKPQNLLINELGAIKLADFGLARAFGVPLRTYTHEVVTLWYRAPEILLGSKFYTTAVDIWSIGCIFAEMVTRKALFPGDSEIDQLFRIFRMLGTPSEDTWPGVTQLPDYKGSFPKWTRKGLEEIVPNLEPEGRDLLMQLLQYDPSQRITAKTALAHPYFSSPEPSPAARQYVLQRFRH
T2 sequence (P24864 whole entry partner): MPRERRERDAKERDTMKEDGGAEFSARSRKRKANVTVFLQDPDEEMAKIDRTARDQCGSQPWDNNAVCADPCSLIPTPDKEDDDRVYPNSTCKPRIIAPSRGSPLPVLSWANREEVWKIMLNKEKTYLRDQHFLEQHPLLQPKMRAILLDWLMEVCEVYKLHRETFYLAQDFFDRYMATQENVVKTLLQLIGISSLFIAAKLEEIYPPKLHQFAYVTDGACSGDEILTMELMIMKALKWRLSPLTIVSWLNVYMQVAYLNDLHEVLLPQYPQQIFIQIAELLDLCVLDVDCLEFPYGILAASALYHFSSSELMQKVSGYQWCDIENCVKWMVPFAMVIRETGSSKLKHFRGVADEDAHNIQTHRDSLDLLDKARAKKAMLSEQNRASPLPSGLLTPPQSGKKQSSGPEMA

In the case of `O=C(CNc1ccc(Cl)c(O)c1)Nc1nc2ccc3[nH]ncc3c2s1` [compound 6], the results for the IC50 at recombinant human βARK1 and on CDK3/Cyclin E complex were 4 nM and 28 nM, respectively.
On to `CC(=O)Nc1cc(NCC(=O)Nc2nc3ccc4[nH]ncc4c3s2)ccc1Cl` [compound 16], for which the IC50 on recombinant human βARK1 was found to be 8.3 nM; at CDK3/Cyclin E complex it was 50 nM.
Turning to `CC(C)(Nc1cccc(O)c1)C(=O)Nc1nc2ccc3[nH]ncc3c2s1` [compound 33], the IC50 on recombinant human βARK1 amounted to 7.8 nM; at CDK3/Cyclin E complex, 33 nM.
For `CC(C)(Nc1ccc(Cl)cc1)C(=O)Nc1nc2ccc3[nH]ncc3c2s1` [compound 35], the values for the IC50 on recombinant human βARK1 and on CDK3/Cyclin E complex were 8.8 nM and 80 nM, respectively.
For `CC(=O)Nc1cc(NC(C)(C)C(=O)Nc2nc3c(C(F)(F)F)cc4[nH]ncc4c3s2)ccc1Cl` [compound 53], the IC50 was 2 nM on recombinant human βARK1 and 45 nM on CDK3/Cyclin E complex.
For `CNC(=O)c1cc(NC(C)(C)C(=O)Nc2nc3c(C(F)(F)F)cc4[nH]ncc4c3s2)ccc1Cl` [compound 55] the same measures were 6.3 nM and 23 nM.
Turning to `CCNC(=O)c1cc(NC(C)(C)C(=O)Nc2nc3c(C(F)(F)F)cc4[nH]ncc4c3s2)ccc1F` [compound 58], the IC50 turned out to be 6.4 nM at recombinant human βARK1 and 47 nM at CDK3/Cyclin E complex.
Consider `CCNC(=O)c1cc(NC(C)(C)C(=O)Nc2nc3c(C(F)(F)F)cc4[nH]ncc4c3s2)ccc1Cl` [compound 60], for which the figures for the IC50 at recombinant human βARK1 and on CDK3/Cyclin E complex were 4.5 nM and 16 nM, respectively.
For `CC(C)(Nc1ccc(Cl)c(C(=O)NC2CC2)c1)C(=O)Nc1nc2c(C(F)(F)F)cc3[nH]ncc3c2s1` [compound 75], in that order: 8.8 nM and 41 nM.
For `CC(=O)Nc1cc(NC(C)(C)C(=O)Nc2nc3c(C(F)(F)F)cc4[nH]ncc4c3s2)ccc1F` [compound 81], the IC50 is 8.3 nM at recombinant human βARK1 and 55 nM on CDK3/Cyclin E complex.
On to `CC(C)(Nc1cccc(S(N)(=O)=O)c1)C(=O)Nc1nc2c(C(F)(F)F)cc3[nH]ncc3c2s1` [compound 82], for which the values for the IC50 on recombinant human βARK1 and at CDK3/Cyclin E complex were 9.3 nM and 5.9 nM, respectively.
In the case of `CC(C)(Nc1ccc(Cl)c(C(=O)NCC(N)=O)c1)C(=O)Nc1nc2c(C(F)(F)F)cc3[nH]ncc3c2s1` [compound 85], the IC50 on recombinant human βARK1 turned out to be 9.9 nM; at CDK3/Cyclin E complex it was 0.6 nM.
Consider `CC(C)(Nc1ccc(Cl)c(O)c1)C(=O)Nc1nc2c(C(F)(F)F)cc3[nH]ncc3c2s1` [compound 95], for which the figures for the IC50 at recombinant human βARK1 and on CDK3/Cyclin E complex were 8.7 nM and 22 nM, respectively.
For `O=C(Nc1nc2ccc3[nH]ncc3c2s1)C1(Nc2ccc(Cl)cc2)CC1` [compound 117] the same measures were 3.9 nM and 44 nM.
For `CCOC(=O)c1cc(NC2(C(=O)Nc3nc4ccc5[nH]ncc5c4s3)CC2)ccc1Cl` [compound 118] the same measures were 8.7 nM and 169 nM.
For `CC(=O)Nc1cc(NC2(C(=O)Nc3nc4ccc5[nH]ncc5c4s3)CC2)ccc1F` [compound 120] the same measures were 3.7 nM and 105 nM.
In the case of `CCC(=O)Nc1cc(NC2(C(=O)Nc3nc4ccc5[nH]ncc5c4s3)CC2)ccc1F` [compound 121], the values for the IC50 on recombinant human βARK1 and at CDK3/Cyclin E complex were 4.6 nM and 125 nM, respectively.
`CNC(=O)c1cc(NC2(C(=O)Nc3nc4ccc5[nH]ncc5c4s3)CC2)ccc1Cl` [compound 126]: the IC50 at recombinant human βARK1 is 7.5 nM; at CDK3/Cyclin E complex, 38 nM.
For `CC(=O)Nc1cc(NC(C)(C)C(=O)Nc2nc3ccc4[nH]ncc4c3s2)ccc1Cl` [compound 128], the IC50 at recombinant human βARK1 is 2.8 nM; on CDK3/Cyclin E complex, 61 nM.
For `CCC(=O)Nc1cc(NC(C)(C)C(=O)Nc2nc3ccc4[nH]ncc4c3s2)ccc1Cl` [compound 129], in that order: 3.9 nM and 103 nM.
For `O=C(Nc1nc2ccc3[nH]ncc3c2s1)C(CO)Nc1ccc(Cl)cc1` (stereo not shown) [compound 132], in that order: 7.7 nM and 29 nM.
For `CC(C)(Nc1ccc(Cl)c(C(N)=O)c1)C(=O)Nc1nc2c(C(F)(F)F)cc3[nH]ncc3c2s1` [compound 135] the same measures were 3.2 nM and 23 nM.
Take `CC(C)(Nc1ccc(Cl)c(C(=O)NCCCC(=O)O)c1)C(=O)Nc1nc2c(C(F)(F)F)cc3[nH]ncc3c2s1` [compound 144]: the IC50 on recombinant human βARK1 stood at 7.7 nM; at CDK3/Cyclin E complex, 180 nM.
